For data set [1], the system named is TNBS colitis. Briefly: TNBS colitis treated with CTLA-4-Ig with or without 1-mT: weight, survival, clinical characteristics, histological and morphological scoring. The class given is in vivo, SJL/J mice.
Data set [2] deals with indoleamine 2,3-dioxygenase mRNA. Kind of data set: Real-time PCR of indoleamine 2,3-dioxygenase mRNA in distal colon. In kind it is in vivo, SJL/J mouse. The following applies: TNBS colitis, Day 4; PBS 8 fold. (Quantitative PCR measures a nucleic acid by following its amplification.)
Text: (§1) Six week old female SJL/J mice weighing approximately 20 grams, which were maintained at a controlled temperature and light/dark cycle in a pathogen free facility, were anesthetized with an intraperitoneal injection of a 10% Ketamine/Xylazine mixture. […] Mice were sacrificed 4 days after treatment for determination of indoleamine 2,3-dioxygenase protein and mRNA levels.
Data set [3] has as its system indoleamine 2,3-dioxygenase protein. Kind of data set: Western blotting of indoleamine 2,3-dioxygenase protein in distal colon lysates. The class given is in vivo, mouse. The following applies: four days after TNBS, 1-mT versus placebo. Background: A western blot detects proteins with antibodies after separation by electrophoresis.
Experimental: as §1
Western blotting (Bio-Rad, Hercules, Calif.) for determining indoleamine 2,3-dioxygenase protein amount was performed on whole colon lysates obtained from the distal colons of both control mice and mice treated with Trinitrobenzene Sulfonic Acid. For Lamina Propria Mononuclear cells, 1×10^6 cells were concentrated and loaded per lane. The samples were denatured and separated on an 8% Sodium Dodecyl Sulphate-Polyacrylamide (SDS-PAGE) gel. After electrophoresis, the separated proteins were then transferred to an Immobilon-P Transfer Membrane (Millipore, Be-dford, Mass.). […] The secondary antibodies were donkey anti-rabbit linked to horseradish peroxidase. After probing for indoleamine 2,3-dioxygenase protein, the membranes were stripped and reprobed for β-actin, which was used in addition to the protein assay to ensure equal protein loading.
Western blotting for indoleamine 2,3-dioxygenase was performed as follows. […] The protein was detected using ECL (Amersham). […]
Data set [4] deals with TNFα mRNA. Briefly: Real-time PCR of colonic TNFα mRNA. The following applies: TNBS colitis, Day 4; PBS 5 fold. In kind it is in vivo, mouse.
Data set [5] has as its system Forkhead box P3 (Foxp3) mRNA. Kind of data set: Real-time PCR of colonic Foxp3 mRNA. The class given is in vivo, mouse. The following applies: Day 4 of TNBS colitis.
Data set [6] has as its system lymphocytes in lamina propria lymphoid aggregates. Kind of data set: BrdU immunohistochemistry of lymphocyte proliferation in lamina propria lymphoid aggregates. In kind it is in vivo, mice. The following applies: 4 days and 6 days after TNBS. As to the method: Lymphocyte proliferation was determined by BrdU labeling of lamina propria lymphoid aggregates of mice treated with Trinitrobenzene Sulfonic Acid enemas plus subcutaneous pellets containing 1-methyl-tryptophan.
BrdU immunohistochemistry was performed to measure cellular proliferation in hypertrophied lymphoid aggregates within the lamina propria of Trinitrobenzene Sulfonic Acid ±1-methyl-tryptophan treated mice. Mice were given rectal Trinitrobenzene Sulfonic Acid and subcutaneous pellets containing 1-methyl-tryptophan or placebo. Groups of mice were sacrificed at 4 days and 6 days after Trinitrobenzene Sulfonic Acid administration. Each mouse received BrdU two hours prior to sacrifice in order to label the S-phase cells. Four micro paraffin sections were prepared from the inflamed colon segments with macroscopically visible hypertrophied colonic patches then labeling was performed as previously described in Riehl, Gasteroenterology, 118: 1106-16, 2000.

Data set [7] relates to Trinitrobenzene Sulfonic Acid colitis. The conditions noted are these: mouse, in vivo.
Data set [8] has as its system interleukin (IL)-2 mRNA. Briefly: Real-time PCR of colonic IL-2 mRNA. The conditions noted are these: 4 days after TNBS.
The test system of data set [9] is IL-1 mRNA. Briefly: Real-time PCR of colonic IL-1 mRNA. The following applies: 4 days after TNBS.
Data set [10] deals with IL-12 mRNA. Briefly: Real-time PCR of colonic IL-12 mRNA. The following applies: 4 days after TNBS, Example 5; placebo 20-fold.
For data set [11], the system named is IFN-γ mRNA. Briefly: Real-time PCR of colonic IFN-γ mRNA.
Data set [12] has as its system TGFβ1 mRNA. Kind of data set: Real-time PCR of colonic TGFβ / TGFβ1 mRNA.
Data set [13] deals with indoleamine 2,3-dioxygenase in lamina propria mononuclear cells. Briefly: IDO expression in cultured colonic lamina propria mononuclear cells incubated with rIFN-γ and/or LPS. The class given is cell-based, mouse.

The molecule `Cn1cc(C[C@H](N)C(=O)O)c2ccccc21` [1-mT, 1-methyltryptophan] registered a morphological score in data set [1] (Day 4 of TNBS, PBS 2.9) of 4.2. In addition, in data set [1] (Day 4 of TNBS, PBS 5.4), the histological score amounted to 6.6. In addition, the “histology of distal colon” value in [1] (TNBS, Day 4) was “more transmural inflammation, loss of tissue architecture and vasculature, and outright necrosis”. The molecule further gave a survival rate in [1] (TNBS, by Day 4, PBS+TNBS 75%) of 62.5%. For the same molecule, in data set [1] (TNBS, TNBS+PBS 7/9), the “surviving animals with clinical characteristics of active TNBS colitis (hunched, piloerection), number of animals” value is listed as 4/5. Further, in [1] (TNBS, TNBS+PBS 78%), the “surviving animals with clinical characteristics of TNBS colitis” value was determined as 80%. Also, in [1] (mouse, in vivo), the “mortality (animals dead of animals treated)” value is on record as 3 of 8 and the mortality rate stood at 37%. Also, the “increase in IDO mRNA expression over controls” value in data set [2] is recorded as 2 fold. Further, the “colonic indoleamine 2,3-dioxygenase protein amount” value in [3] is recorded as “no difference”. Further, the “TNFα mRNA induction” value in data set [4] is 16 fold. In data set [5], the “induction of Foxp3 mRNA” value is 11 fold. The “S phase lymphocytes in lymphoid aggregates (BrdU) versus placebo” value in data set [6] was “significantly more S phase lymphocytes”. Moreover, in data set [7], the “effect on colonic morphology” value was “no effect on colonic morphology”, the “gross morphology of colon versus placebo” value was “significant gross morphologic differences”, the “histologic appearance versus placebo” value is given as “no significant histologic differences” and the “histologic scores versus placebo” value is listed as “significantly higher”. In addition, the survival rate in [7] was found to be 100%. In addition, in [7] (sc), the “survival at 7 days after Trinitrobenzene Sulfonic Acid administration” value is given as 20%. In data set [8], the “IL-2 expression versus TNBS and placebo” value is “significantly higher expression by orders of magnitude”. The “IL-1 mRNA levels versus TNBS alone” value in [9] was “markedly increased”. Besides, the “IL-12 expression increase over baseline” value in data set [10] is recorded as 120 fold. The “IFN-γ expression increase over baseline” value in [11] (4 days after TNBS, Example 5, placebo 8-fold) amounted to 75 fold. Further, the “induction of IFN-γ mRNA” value in [11] (TNBS colitis, Day 4) is 15 fold. Further, in [12] (4 days after TNBS, Example 5, placebo about half of control), the “expression of TGFβ” value is 1.5 times control values. Also, in [12] (Day 4 of TNBS colitis), the “TGFβ1 mRNA induction” value came to 0.8 fold.

Regarding “rIFN-γ: recombinant interferon-γ (R&D systems)”, the “indoleamine 2,3-dioxygenase expression after incubation” value in data set [13] (B220+ enriched lamina propria mononuclear cell population) is on record as “did express indoleamine 2,3-dioxygenase after incubation”; in data set [13] (B220-/MHCII- lamina propria mononuclear cell population) it was “increased after incubation”; in data set [13] (MHCII+/B220- lamina propria mononuclear cell population) it was “further induced”; in data set [13] (unfractionated lamina propria mononuclear cells of untreated mice, 30 ng/mL, 24 hours), “marked increase”. In addition, the “indoleamine 2,3-dioxygenase protein induction” value in [13] (colon lamina propria mononuclear cells from STAT1-/- animals) is given as “severely blunted indoleamine 2,3-dioxygenase protein induction”. For the same molecule, in [13] (colonic lamina propria mononuclear cells from C57BL/6 mice, 24 hours), the “indoleamine 2,3-dioxygenase induction” value was “increased significantly”. Besides, the “concentration required to maximally increase indoleamine 2,3-dioxygenase protein” value in data set [13] (lamina propria mononuclear cells) is given as “less than 1 ng/ml”.

The values above are taken from US20050238651A1, “Treatment of inflammatory bowel disease” (priority 2003, published 2005).
